Some test systems named below: NCI-H460 lung; LOX IMVI melanoma; SF-268 CNS; HCT-116 colon; COLO 205 colon; OVCAR-3 ovarian; HT29 colon; SNB-19 CNS; HL-60(TB) leukemia; SF-295 CNS.
Common to all, as to assay: DTP human tumour cell line panel, 48 h

In PubChem BioAssay (NCI) one finds GI50 and TGI data, which are given here for 8 compounds.

The structures appear in SMILES notation. “And” between values parts separate entries of the source, which are not always exact repeats. Equal values may be shown once.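 Step 1: Grow cells in 96-well plates. Step 2: Expose to compound for 48 hours at 5 concentrations. Step 3: Interpolate endpoints linearly; if unreached, use highest concentration. GI50 is the concentration that inhibits growth by half. TGI: total growth inhibition.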

The GI50 is the concentration that inhibits growth by half. One may read the TGI as the concentration giving total growth inhibition. Low values mean more potent growth arrest, high ones less potent growth arrest.

`C[C@]12CC[C@H](OC3OC(CO)C(O)C(O)C3O)C[C@H]1CC[C@@H]1[C@@H]2CC[C@]2(C)[C@@H](C3=CCOC3=O)CC[C@]12O` (stereo partly specified): the GI50 was 0.943 µM and 4.26 µM with NCI-H460 lung; above 100 µM in the experiment with LOX IMVI melanoma; > 100 µM and 27.1 µM in the experiment on SF-268 CNS; > 100 µM and 51.3 µM in the experiment on HCT-116 colon; above 100 µM with COLO 205 colon; 42.1 µM and > 100 µM in the experiment with OVCAR-3 ovarian. Further, the GI50 is above 100 µM in the experiment on HT29 colon; 23.4 µM and > 100 µM in the experiment with SNB-19 CNS; above 100 µM with HL-60(TB) leukemia. For the same compound, the TGI in the experiment on NCI-H460 lung was 29.4 µM; in the experiment with LOX IMVI melanoma it was 25.3 µM and > 100 µM; in the experiment with SF-268 CNS, 50 µM and > 100 µM; with HCT-116 colon, 50 µM and > 100 µM; in the experiment on COLO 205 colon, 50 µM and > 100 µM; with OVCAR-3 ovarian it was 50 µM and > 100 µM. The total growth inhibition concentration (TGI) with HT29 colon is 50 µM and > 100 µM; in the experiment with SNB-19 CNS, 50 µM and > 100 µM; in the experiment on HL-60(TB) leukemia, 28 µM and > 100 µM; with SF-295 CNS, 24.6 µM and > 100 µM and 70.7 µM.
For `CC1=C[C@]2(O)C(=O)[C@H](C)C[C@H]3[C@@H](CC[C@@](C)(O)/C=C\2C1=O)C3(C)C`, the TGI with NCI-H460 lung was above 57.6 µM; in the experiment with LOX IMVI melanoma, 34.6 µM; in the experiment with SF-268 CNS it was 52.1 µM; with HCT-116 colon, 30.9 µM; in the experiment with COLO 205 colon, 30.6 µM; with OVCAR-3 ovarian, 38.1 µM. The TGI in the experiment on HT29 colon was above 71.6 µM; in the experiment on SNB-19 CNS, above 100 µM; in the experiment with HL-60(TB) leukemia, above 100 µM; in the experiment with SF-295 CNS, 75.8 µM.
`COc1ccc(/C(COc2ccc3c(=O)c(-c4ccccc4)coc3c2)=N\O)cc1`: the GI50 with NCI-H460 lung is 4 µM; in the experiment on LOX IMVI melanoma, 4.73 µM; in the experiment on SF-268 CNS, 6.36 µM; with HCT-116 colon, 18.3 µM; with COLO 205 colon it was 9.66 µM; in the experiment on OVCAR-3 ovarian, 0.987 µM. Moreover, the GI50 with HT29 colon was 2.89 µM; with SNB-19 CNS it was 14.9 µM; in the experiment on HL-60(TB) leukemia, 0.119 µM; in the experiment on SF-295 CNS, 2.59 µM. The TGI with NCI-H460 lung is 31.7 µM; with LOX IMVI melanoma, above 45.9 µM; in the experiment on SF-268 CNS, above 78.5 µM; in the experiment on HCT-116 colon it was 44.6 µM; with COLO 205 colon, above 36.3 µM; with OVCAR-3 ovarian it was 10.8 µM. The TGI with HT29 colon was above 44.5 µM; in the experiment with SNB-19 CNS, above 86.7 µM; in the experiment on HL-60(TB) leukemia, 2.2 µM; with SF-295 CNS, 25.5 µM.
For the compound `O=C1C=CC(=O)C12CCc1ccccc12`, the TGI in the experiment with NCI-H460 lung, in the experiment with LOX IMVI melanoma, with SF-268 CNS, in the experiment with HCT-116 colon, in the experiment on COLO 205 colon and with OVCAR-3 ovarian was above 100 µM throughout. For the same compound, the total growth inhibition concentration (TGI) with HT29 colon was above 100 µM; with SNB-19 CNS, above 100 µM; in the experiment with HL-60(TB) leukemia it was above 60.6 µM; in the experiment with SF-295 CNS, above 31.6 µM.
On to `C[C@]12CC[C@@H]3c4cc(-c5ccc(F)cc5)c(O)cc4CC[C@H]3[C@@H]1CC[C@@H]2O`, for which the GI50 is 4.26 µM in the experiment with NCI-H460 lung; 9.88 µM in the experiment on LOX IMVI melanoma; 7.29 µM in the experiment with SF-268 CNS; 5.65 µM in the experiment on HCT-116 colon; 4.83 µM with COLO 205 colon; 4.02 µM in the experiment with OVCAR-3 ovarian. Moreover, the GI50 is 6.54 µM in the experiment with HT29 colon, 9.61 µM with SNB-19 CNS, 8.17 µM with HL-60(TB) leukemia and 3.98 µM in the experiment on SF-295 CNS. In addition, the total growth inhibition concentration (TGI) with NCI-H460 lung is 19.6 µM; with LOX IMVI melanoma, 22.1 µM; in the experiment on SF-268 CNS, 27.8 µM; in the experiment on HCT-116 colon, 22 µM; with COLO 205 colon, 23.9 µM; in the experiment on OVCAR-3 ovarian, 20.9 µM. The TGI amounted to 20.2 µM in the experiment with HT29 colon, 22.6 µM in the experiment on SNB-19 CNS, 28.5 µM in the experiment with HL-60(TB) leukemia and 17.6 µM in the experiment with SF-295 CNS.
`C=C(CN1CCN(c2cccc(C(F)(F)F)n2)CC1)c1ccc(C(=O)Nc2ccccc2N)cc1`: the GI50 is 0.64 µM and 0.37 µM in the experiment with NCI-H460 lung; 1.5 µM and 0.496 µM in the experiment with LOX IMVI melanoma; 1.13 µM and 0.578 µM with SF-268 CNS; 0.537 µM and 0.402 µM in the experiment on HCT-116 colon; 3.34 µM and 0.907 µM in the experiment with COLO 205 colon; 0.258 µM and 0.261 µM with OVCAR-3 ovarian. Also, the GI50 in the experiment on HT29 colon was 0.565 µM and 0.341 µM; in the experiment with SNB-19 CNS it was 0.65 µM and 0.708 µM; in the experiment on HL-60(TB) leukemia it was 0.322 µM and 0.297 µM; in the experiment on SF-295 CNS, 0.387 µM and 0.191 µM. The TGI is above 100 µM in the experiment on NCI-H460 lung; above 100 µM in the experiment with LOX IMVI melanoma; 31.2 µM and > 100 µM with SF-268 CNS; above 100 µM in the experiment on HCT-116 colon; 1.12 µM and 0.982 µM in the experiment on OVCAR-3 ovarian; 29.3 µM and 23.5 µM with SNB-19 CNS. In addition, the total growth inhibition concentration (TGI) in the experiment on HL-60(TB) leukemia was 1 µM and 2.13 µM.
Turning to `Cc1ccc(Cc2cnc(NC(=O)/C=C/c3cccc(C)c3)s2)cc1`, the 50% growth inhibitory concentration (GI50) with NCI-H460 lung was 0.064 µM; in the experiment on LOX IMVI melanoma, 0.124 µM; with SF-268 CNS, 1.85 µM; with HCT-116 colon, 0.0746 µM; in the experiment with COLO 205 colon, 0.355 µM; in the experiment with OVCAR-3 ovarian, 0.0634 µM. The GI50 is 0.135 µM in the experiment on HT29 colon, 0.224 µM in the experiment with SNB-19 CNS, 0.0933 µM with HL-60(TB) leukemia and 0.0786 µM in the experiment with SF-295 CNS. Moreover, the concentration for total growth inhibition (TGI) is 11.8 µM with NCI-H460 lung; 7.4 µM in the experiment with LOX IMVI melanoma; above 100 µM in the experiment on SF-268 CNS; 2.4 µM in the experiment on HCT-116 colon; above 100 µM in the experiment with COLO 205 colon; 0.725 µM with OVCAR-3 ovarian. In addition, the TGI worked out at 5.85 µM with HT29 colon, 23.1 µM in the experiment with SNB-19 CNS, 0.559 µM with HL-60(TB) leukemia and 0.558 µM in the experiment on SF-295 CNS.
Take `CNC(=S)NC(=O)c1c(Cl)n(C(=O)OC(C)(C)C)c2ccccc12`: the GI50 with NCI-H460 lung was 48.6 µM; in the experiment with LOX IMVI melanoma, 30 µM; in the experiment on SF-268 CNS, 72.8 µM; in the experiment with HCT-116 colon, 38.5 µM; in the experiment on COLO 205 colon it was 59.6 µM; in the experiment on OVCAR-3 ovarian it was 38.1 µM. Also, the GI50 with HT29 colon is 56.7 µM; in the experiment on SNB-19 CNS, 79.9 µM; in the experiment on HL-60(TB) leukemia, 79.7 µM; in the experiment with SF-295 CNS it was 56.4 µM. Moreover, the TGI in the experiment on NCI-H460 lung, in the experiment with LOX IMVI melanoma, in the experiment on SF-268 CNS, in the experiment with HCT-116 colon, in the experiment with COLO 205 colon and with OVCAR-3 ovarian was above 100 µM each time. Moreover, the total growth inhibition concentration (TGI) in the experiment with HT29 colon, in the experiment on SNB-19 CNS, in the experiment on HL-60(TB) leukemia and in the experiment on SF-295 CNS was above 100 µM throughout.
